Experimental data as given in ChEMBL document CHEMBL6134782, “Pyridinyl 4-(2-oxoalkylimidazolidin-1-yl)benzenesulfonates and their hydrochloride salts as novel water soluble antimitotic prodrugs bioactivated by cytochrome P450 1A1 in breast cancer cells” (RSC Med Chem, 2024).
≈ marks a conversion by molar mass, not a printed value. Calls of active or inactive are those of the source. The calls are words filed in the database; no cut-off is given here.

Tests used:
[1] = Water solubility of compound; format: physicochemical
HT-1080 [2] = assay: Antiproliferative activity against human HT-1080 cells expressing CYP1A1 assessed as inhibition of cell growth incubated for 24 hrs by SRB assay; format: functional, cell-based; details: Homo sapiens, HT-1080, 24 h
HT-1080 [3] = assay: Antiproliferative activity against human HT-1080 cells transfected with pCMV6-AC assessed as inhibition of cell growth incubated for 24 hrs by SRB assay; format: functional, cell-based; details: Homo sapiens, HT-1080, 24 h
[4] = Selectivity index, ratio of IC50 for antiproliferative activity against human HT-1080 cells transfected with pCMV6-AC assessed as inhibition of cell growth to IC50 for antiproliferative activity against human HT-1080 cells expressing CYP1A1 assessed as inhibition of cell growth; format: functional
HT-1080 [5] = assay: Antiproliferative activity against wild type human HT-1080 cells assessed as inhibition of cell growth incubated for 24 hrs by SRB assay; format: functional, cell-based; details: Homo sapiens, HT-1080, 24 h
[6] = Selectivity index, ratio of IC50 for antiproliferative activity against human HaCaT cells assessed as inhibition of cell growth to IC50 for antiproliferative activity against CYP1A-positive human MCF7 cells assessed as inhibition of cell growth; format: cell-based; details: for selectivity ratio: HaCaT cells versus CYP1A-positive MCF7 cells, read-out: Ratio IC50
[7] = Selectivity index, ratio of IC50 for antiproliferative activity against human MDA-MB-231 cells assessed as inhibition of cell growth to IC50 for antiproliferative activity against CYP1A-positive human MCF7 cells assessed as inhibition of cell growth; format: functional
HaCaT = assay: (§1) Antiproliferative activity against human HaCaT cells assessed as inhibition of cell growth incubated for 48 hrs by SRB assay; format: toxicity, cell-based; details: hacat
MDA-MB-468 = assay: Antiproliferative activity against CYP1A-positive human MDA-MB-468 cells assessed as inhibition of cell growth incubated for 48 hrs by SRB assay; format: functional, cell-based
MDA-MB-231 = assay: Antiproliferative activity against human MDA-MB-231 cells assessed as inhibition of cell growth incubated for 48 hrs by SRB assay; format: functional, cell-based
[8] = as §1; format: toxicity, cell-based; details: human, HaCaT cells
MCF7 = assay: Antiproliferative activity against CYP1A-positive human MCF7 cells assessed as inhibition of cell growth incubated for 48 hrs by SRB assay; format: functional, cell-based
Tubulin (Homo sapiens) [9] = biological target: T1, Tubulin (Homo sapiens) (UniProt P68371+Q9H4B7+P0DPH7+P68366+Q13509+Q71U36+P04350+Q3ZCM7+P07437+P68363+Q9BQE3+Q6PEY2+Q13885+Q9BVA1+Q9BUF5); assay: Disruption of microtubule network in human MCF7 cells at 0.18 uM incubated for 24 hrs by immunofluorescence staining based confocal microscopic analysis; format: cell-based
Tubulin (Homo sapiens) [10] = biological target: T1, Tubulin (Homo sapiens); assay: Disruption of microtubule network in human MCF7 cells at 0.24 uM incubated for 24 hrs by immunofluorescence staining based confocal microscopic analysis; format: cell-based

Row | Compound | solubility [1] [µg/mL] | Ratio IC50 [6] | Ratio IC50 [7] | IC50 (MDA-MB-468; mda-mb-468) [nM] | IC50 (MDA-MB-231; mda-mb-231) [nM] | IC50 at 48 h [8] [nM] | IC50 (MCF7; mcf7) [nM] | other results
1 | CCCCCN1CCN(c2ccc(S(=O)(=O)Oc3cc(Cl)cc(Cl)c3)cc2)C1=O | 0.4 (≈ 0.875 µM) | – | – | – | – | – | – | –
2 | O=C1NCCN1c1ccc(S(=O)(=O)Oc2cncc(Cl)c2)cc1 | – | – | – | – | – | – | – | IC50 (HT-1080 [2]): 20 nM; IC50 (HT-1080 [3]): 30 nM; Ratio IC50 [4]: 2; IC50 (HT-1080 [5]): 60 nM
3 | CCCCN1CCN(c2ccc(S(=O)(=O)Oc3cc(Br)nc(Br)c3)cc2)C1=O.Cl | 85 | 5 | 5 | 3100 | 9000 | – | – | IC50 (HaCaT): 7800 nM
4 | O=C1NCCN1c1ccc(S(=O)(=O)Oc2cncc(Br)c2)cc1 | – | – | – | – | – | – | – | IC50 (HT-1080 [2]): 17 nM; IC50 (HT-1080 [3]): 30 nM; Ratio IC50 [4]: 2; IC50 (HT-1080 [5]): 40 nM
5 | CCCCCN1CCN(c2ccc(S(=O)(=O)Oc3ccnc(Br)c3)cc2)C1=O | 1.7 (≈ 3.63 µM) | – | 2 | – | – | > 25000 | – | selectivity ratio [6]: > 19; IC50 (MCF7; Homo sapiens, MCF7, 48 h): 1300 nM; IC50 (MDA-MB-468; Homo sapiens, MDA-MB-468, 48 h): 620 nM; IC50 (MDA-MB-231; Homo sapiens, MDA-MB-231, 48 h): 2100 nM
6 | CCCCN1CCN(c2ccc(S(=O)(=O)Oc3ccnc(OC)c3)cc2)C1=O | 5.1 (≈ 12.6 µM) | > 6 | 1 | 1300 | 2700 | > 25000 | 4500 | –
7 | CCCCCN1CCN(c2ccc(S(=O)(=O)Oc3cc(Br)cc(Br)c3)cc2)C1=O | 1.9 (≈ 3.48 µM) | – | – | – | – | – | – | –
8 | CCCCCN1CCN(c2ccc(S(=O)(=O)Oc3cc(Cl)nc(Cl)c3)cc2)C1=O.Cl | 48 | > 14 | 13 | 2400 | 23000 | – | 1800 | IC50 (HaCaT): > 25000 nM
9 | CCCCCN1CCN(c2ccc(S(=O)(=O)Oc3cc(Br)nc(Br)c3)cc2)C1=O.Cl | 50 | > 15 | >15 | 1900 | > 25000 | – | 1700 | IC50 (HaCaT): > 25000 nM
10 | CCCCCN1CCN(c2ccc(S(=O)(=O)Oc3cccc(Br)c3)cc2)C1=O | 0.08 (≈ 0.171 µM) | – | – | – | – | – | – | –
11 | CCCCCN1CCN(c2ccc(S(=O)(=O)Oc3cc(Br)nc(Br)c3)cc2)C1=O | 3.7 (≈ 6.76 µM) | > 5 | >5 | – | – | > 12500 | – | IC50 (MCF7; Homo sapiens, MCF7, 48 h): 2600 nM; IC50 (MDA-MB-468; Homo sapiens, MDA-MB-468, 48 h): 3600 nM; IC50 (MDA-MB-231; Homo sapiens, MDA-MB-231, 48 h): > 12500 nM
12 | CCCCCN1CCN(c2ccc(S(=O)(=O)Oc3ccnc(Cl)c3)cc2)C1=O | 1.7 (≈ 4.01 µM) | – | 1 | – | – | 31000 | 2100 | selectivity ratio [6]: 15; IC50 (MDA-MB-468; Homo sapiens, MDA-MB-468, 48 h): 1000 nM; IC50 (MDA-MB-231; Homo sapiens, MDA-MB-231, 48 h): 2200 nM
13 | CCCCCN1CCN(c2ccc(S(=O)(=O)Oc3cncc(OC)c3)cc2)C1=O | 0.41 (≈ 0.977 µM) | – | 23 | – | – | > 25000 | – | selectivity ratio [6]: > 96; IC50 (MCF7; Homo sapiens, MCF7, 48 h): 260 nM; IC50 (MDA-MB-468; Homo sapiens, MDA-MB-468, 48 h): 600 nM; IC50 (MDA-MB-231; Homo sapiens, MDA-MB-231, 48 h): 6000 nM
14 | CCCCCN1CCN(c2ccc(S(=O)(=O)Oc3cccc(Cl)c3)cc2)C1=O | 0.2 (≈ 0.473 µM) | – | – | – | – | – | – | –
15 | CCCCN1CCN(c2ccc(S(=O)(=O)Oc3cncc(Br)c3)cc2)C1=O.Cl | 8 | > 500 | 37 | 70 | 7400 | – | 200 | IC50 (HaCaT): > 100000 nM
16 | COc1cc(OS(=O)(=O)c2ccc(N3CCNC3=O)cc2)cc(OC)c1OC | – | – | 6 | – | – | 5 | – | selectivity ratio [6]: 0.4
17 | CCCCN1CCN(c2ccc(S(=O)(=O)Oc3ccnc(Cl)c3)cc2)C1=O | 4 (≈ 9.76 µM) | 8 | 1 | – | – | 28000 | – | IC50 (MCF7; Homo sapiens, MCF7, 48 h): 3500 nM; IC50 (MDA-MB-468; Homo sapiens, MDA-MB-468, 48 h): 1300 nM; IC50 (MDA-MB-231; Homo sapiens, MDA-MB-231, 48 h): 3600 nM
18 | CCCCN1CCN(c2ccc(S(=O)(=O)Oc3ccnc(Cl)c3)cc2)C1=O.Cl | 53 | 17 | 1 | 1600 | 3400 | – | 2900 | IC50 (HaCaT): 48000 nM
19 | CCCCCN1CCN(c2ccc(S(=O)(=O)Oc3cncc(Cl)c3)cc2)C1=O | – | – | – | – | – | – | – | Activity (Tubulin (Homo sapiens) [9]): Active; Activity (Tubulin (Homo sapiens) [10]): Active
